System: relapsed or refractory, rituximab-naive or -sensitive follicular B-cell NHL
Test: Progression-free survival (PFS), Vc-R vs rituximab study, by biomarker
Format: in vivo, human
Text: Non-Hodgkin lymphoma (NHL) encompasses several unique malignant lymphoid disease entities that vary in clinical behavior, morphologic appearance, immunologic, and molecular phenotype. […] A randomized, open-label, active-controlled, multicenter, multinational, prospective study to compare the efficacy and safety of the combination of bortezomib and rituximab (Vc-R) to single-agent rituximab in subjects who have relapsed or refractory, rituximab-naive or -sensitive follicular B-cell NHL was performed.
Subjects were centrally randomized to Treatment Groups A (Vc-R) or B (rituximab) in a 1:1 ratio taking into account the following stratification factors: • Follicular Lymphoma International Prognostic Index (FLIPI) score (low [0 or 1 factor], intermediate [2 factors], high [≧3 factors]); • Prior rituximab therapy (yes, no); • Time since last dose of anti-lymphoma therapy (≦1 year, >1 year); • Region (United States/Canada, European Union, Rest of World).
The following clinical endpoints were included in the analysis within each treatment group and an overall comparison was made with the biomarker-related endpoints: Progression-free survival, defined as the interval between the date of randomization and the date of progressive disease (PD) or death, whichever is first reported in the ITT population; overall survival; overall response rate (complete response [CR]+CR unconfirmed [CRu]+partial response [PR]); overall CR rate (CR+CRu); duration of response; time to next anti-lymphoma therapy; and treatment free interval.
For single-marker association analyses and pair-wise comparisons, a log rank test and Cox proportional hazard model was utilized for assessments of PFS, TTP, and OS between the treatment groups. Kaplan-Meier curves were utilized to estimate the distribution differences between groups in the time-to-event analyses. Comparison of the response rates between the treatment groups was conducted using the Fishers exact test. Single-marker association analyses were stratified by the covariates.
For pair-wise comparison analysis, biomarker pairs were formed by combinations of two markers. A log rank test was utilized for assessments of PFS, TTP, and OS between the treatment groups in the subpopulation defined by biomarker pairs. Kaplan-Meier curves were utilized to estimate the distribution differences between groups in the time-to-event analyses. Comparison of the response rates between the treatment groups was conducted using the Fishers exact test. Methods of Analysis for the multiple biomarker comparison models can be found in section 4.6.
The stratified log rank test and Cox proportional hazard model was utilized for assessments of PFS between the treatment groups. The Kaplan-Meier method was to be used to estimate the distribution of overall PFS for each treatment group in the biomarker population, and overall; stratified by expression level, SNP, or mutation (or covariate groups as noted above). The hazard ratio and 95% confidence interval was based on a stratified Cox's proportion hazard model with treatment as the explanatory variable. Analyses were done for the population overall and by treatment group, and each of these analyses were also stratified by the following factors if sufficient sample size existed: […]

In the case of rituximab, the “Median PFS (Vc-R vs R)” value (PSMB1/P11A C/G + P65 % POSITIVE CYTOPLASMIC SIGNAL >90%, Excluded) is reported as 348 days, the “Median PFS (Vc-R vs R)” value (PSMB1/P11A C/G + P65 % POSITIVE CYTOPLASMIC SIGNAL >90%, Selected) is reported as 278 days and the “Median PFS (Vc-R vs R)” value (PSMB1/P11A C/G + P65 % POSITIVE CYTOPLASMIC SIGNAL >90%, Total) is reported as 338 days. For the same substance, the “Median PFS (Vc − R vs R)” value (PSMB1/P11A C/G + PSMB9/R60H G/G, Excluded) was 346 days, the “Median PFS (Vc − R vs R)” value (PSMB1/P11A C/G + PSMB9/R60H G/G, Selected) was 288 days and the “Median PFS (Vc − R vs R)” value (PSMB1/P11A C/G + PSMB9/R60H G/G, Total) was 345 days. For the same substance, the “Median PFS (Vc-R vs R)” value (PSMB1/P11A G/G + PSMB5/R24C C/T, Excluded) was 345 days, the “Median PFS (Vc-R vs R)” value (PSMB1/P11A G/G + PSMB5/R24C C/T, Selected) was 237.5 days and the “Median PFS (Vc-R vs R)” value (PSMB1/P11A G/G + PSMB5/R24C C/T, Total) was 345 days. The “Median PFS (Vc − R vs R)” value (PSMB5/R24AC C/C + 20S % NUCLEAR STAINING 30-90, Excluded) was 346 days, the “Median PFS (Vc − R vs R)” value (PSMB5/R24C C/C + 20S % NUCLEAR STAINING 30-90, Selected) was 281 days and the “Median PFS (Vc − R vs R)” value (PSMB5/R24C C/C + 20S % NUCLEAR STAINING 30-90, Total) was 345 days. It also gave a PFS median (PSMB5/R24C C/T) of 9.3 mo, a PFS median (PSMB5/R24C C/T & CD68 POSITIVE FOLLICULAR: 0-50) of 7.2 mo and a PFS median (PSMB5/R24C C/T & P65 INTENSITY CYTOPLASMIC SIGNAL <=1+) of 10.4 mo. For the same substance, the “Median PFS (Vc-R vs R)” value (PSMB5/R24C C/T + CD68 POSITIVE FOLLICULAR 0-50, Total) was 345 days, the “Median PFS (Vc-R vs R)” value (PSMB9/R60H A/G + 20S % POSITIVE CYTOPLASMIC SIGNAL 95-100, Excluded) was 347 days and the “Median PFS (Vc-R vs R)” value (PSMB9/R60H A/G + 20S % POSITIVE CYTOPLASMIC SIGNAL 95-100, Selected) was 273 days. For the same substance, the “Median PFS (Vc-R vs R)” value (PSMB9/R60H A/G + 20S % POSITIVE CYTOPLASMIC SIGNAL 95-100, Total) was 345 days, the “Median PFS (Vc − R vs R)” value (PSMB9/R60H A/G + CD68 OVERALL POSITIVE 0-50, Excluded) was 349 days and the “Median PFS (Vc − R vs R)” value (PSMB9/R60H A/G + CD68 OVERALL POSITIVE 0-50, Selected) was 273 days. For the same substance, the “Median PFS (Vc − R vs R)” value (PSMB9/R60H A/G + CD68 OVERALL POSITIVE 0-50, Total) was 345 days, the “Median PFS (Vc-R vs R)” value (PSMB9/R60H A/G + CD68 POSITIVE FOLLICULAR 0-50, Excluded) was 349 days and the “Median PFS (Vc-R vs R)” value (PSMB9/R60H A/G + CD68 POSITIVE FOLLICULAR 0-50, Selected) was 273 days. For the same substance, the “Median PFS (Vc-R vs R)” value (PSMB9/R60H A/G + CD68 POSITIVE FOLLICULAR 0-50, Total) was 345 days, the PFS median (PSMB9/R60H G/G & P65 % NUCLEAR STAINING: >0) was 9.5 mo and the “Median PFS (Vc − R vs R)” value (PSMB9/R60H G/G + 20S % NUCLEAR STAINING 30-90, Excluded) was 345 days. For the same substance, the “Median PFS (Vc-R vs R)” value (PSMB9/R60H G/G + 20S % NUCLEAR STAINING 30-90, Selected) was 280 days, the “Median PFS (Vc − R vs R)” value (PSMB9/R60H G/G + 20S % NUCLEAR STAINING 30-90, Total) was 345 days and the PFS median (Prior RX: 1 & CD68 POSITIVE FOLLICULAR: 0-50) was 9.3 mo. The PFS median (Prior Ritutux NO & CD68 POSITIVE FOLLICULAR: 0-50) was 9.2 mo, the PFS median (Race Group OTHER & 20S % NUCLEAR STAINING: >20) was 3.8 mo and the “Median PFS (Vc-R vs R)” value (SEX MALE + 20S % NUCLEAR STAINING 30-90, Excluded) was 357 days. For the same substance, the “Median PFS (Vc-R vs R)” value (SEX MALE + 20S % NUCLEAR STAINING 30-90, Selected) was 235 days, the “Median PFS (Vc-R vs R)” value (SEX MALE + 20S % NUCLEAR STAINING 30-90, Total) was 345 days and the “Median PFS (Vc − R vs R)” value (SEX MALE + P65 % POSITIVE CYTOPLASMIC SIGNAL >90%, Excluded) was 375 days. For the same substance, the “Median PFS (Vc − R vs R)” value (SEX MALE + P65 % POSITIVE CYTOPLASMIC SIGNAL >90%, Selected) was 271 days, the “Median PFS (Vc − R vs R)” value (SEX MALE + P65 % POSITIVE CYTOPLASMIC SIGNAL >90%, Total) was 345 days and the “Median PFS (Vc-R vs R)” value (Selected: 20S % NUCLEAR STAINING 30-90 and P65 % POSITIVE CYTOPLASMIC SIGNAL >90%) was 277 days. The “Median PFS (Vc-R vs R)” value (Selected: AGEGRP <=65 and CD68 OVERALL POSITIVE 0-50) was 279 days, the “Median PFS (Vc-R vs R)” value (Selected: AGEGRP <=65 and P65 % POSITIVE CYTOPLASMIC SIGNAL >90%) was 277 days and the “Median PFS (Vc-R vs R)” value (Selected: CD68 OVERALL POSITIVE 0-50 and P65 % POSITIVE C[…] >90%) was 279 days. The “Median PFS (Vc-R vs R)” value (Selected: FLIPI High and P65 % POSITIVE CYTOPLASMIC SIGNAL >90%) was 212 days, the “Median PFS (Vc-R vs R)” value (Selected: PRITUX NO and P65 % NUCLEAR STAINING 0) was 287 days and the “Median PFS (Vc-R vs R)” value (Selected: PSMB1/P11A C/G and ANNARBOR >=III) was 275 days. For the same substance, the “Median PFS (Vc-R vs R)” value (Selected: PSMB1/P11A C/G and P65 % NUCLEAR STAINING 0) was 279 days, the PFS median (Sex MALE & 20S % NUCLEAR STAINING: >20) was 7.7 mo and the “Median PFS (Vc-R vs R)” value (TLAST >1 year + CD68 POSITIVE FOLLICULAR 0-50, Excluded) was 288 days. For the same substance, the “Median PFS (Vc-R vs R)” value (TLAST >1 year + CD68 POSITIVE FOLLICULAR 0-50, Selected) was 357 days, the “Median PFS (Vc-R vs R)” value (TLAST >1 year + CD68 POSITIVE FOLLICULAR 0-50, Total) was 346 days and the “Median PFS (Vc − R vs R)” value (TLAST >1 year + P65 % POSITIVE CYTOPLASMIC SIGNAL >90%, Excluded) was 280 days. The “Median PFS (Vc − R vs R)” value (TLAST >1 year + P65 % POSITIVE CYTOPLASMIC SIGNAL >90%, Selected) was 357 days, the “Median PFS (Vc − R vs R)” value (TLAST >1 year + P65 % POSITIVE CYTOPLASMIC SIGNAL >90%, Total) was 345 days and the “PFS median” value (Total biomarker evaluable, N = 356) was 11.3 months. For the same substance, the “Median PFS (Vc-R vs R)” value (Total: 20S % NUCLEAR STAINING 30-90 and P65 % POSITIVE CYTOPLASMIC SIGNAL >90%) was 345 days, the “Median PFS (Vc-R vs R)” value (Total: AGEGRP <=65 and CD68 OVERALL POSITIVE 0-50) was 345 days and the “Median PFS (Vc-R vs R)” value (Total: AGEGRP <=65 and P65 % POSITIVE CYTOPLASMIC SIGNAL >90%) was 345 days. The “Median PFS (Vc-R vs R)” value (Total: CD68 OVERALL POSITIVE 0-50 and P65 % POSITIVE C[…] >90%) was 345 days, the “Median PFS (Vc-R vs R)” value (Total: FLIPI High and P65 % POSITIVE CYTOPLASMIC SIGNAL >90%) was 345 days and the “Median PFS (Vc-R vs R)” value (Total: PRITUX NO and P65 % NUCLEAR STAINING 0) was 345 days. For the same substance, the “Median PFS (Vc-R vs R)” value (Total: PSMB1/P11A C/G and ANNARBOR >=III) was 345 days, the “Median PFS (Vc-R vs R)” value (Total: PSMB1/P11A C/G and P65 % NUCLEAR STAINING 0) was 338 days and the PFS (confirmation cohort 1 (excludes China; n=106), biomarker positive) was 9.5 months. For the same substance, the “median PFS” value (confirmation cohort 2 (includes China subjects and subjects with missing data), biomarker positive) was 9.5 months, the PFS (discovery cohort, CD68 Low and PSMB P11A) was 8.5 months and the “median PFS” value (subjects with PSMB1 P11A (C/G)) was 9.5 months. For the same substance, the “median PFS” value (subjects with higher CD68 expression) was 16.2 months and the “median PFS” value (subjects with low CD68 (0-50)) was 9.3 months.

— patent publication US9322066B2, “Predictors for cancer treatment” (priority 2011, dated 2016)
